Experimental data from patent US12496218B1, “Fractionated topical ocular drug delivery methods and devices for use in the same” (Bausch + Lomb Ireland Limited, priority 2019, dated 2025).

Columns and labels:
humans [1] = experiment: Intraocular pressure (IOP) in human subjects after topical ocular micro-dosing, conventional vs fractionated; format: in vivo; details: FIG. 5
humans [2] = experiment: Distance corrected near visual acuity (DCNVA) in human subjects after topical ocular micro-dosing, conventional vs fractionated

SMILES: CC[C@@H]1C(=O)OC[C@@H]1Cc1cncn1C [pilocarpine]
- IOP (intraocular pressure) result, regimen B compared with regimen C (humans [1]; dose regimen B: fractionated 1% pilocarpine): performed much better
- IOP (intraocular pressure) result (humans [1]; dose regimen C: single dose of 2% pilocarpine): null IOP result
- toxic effects (humans [2]; 2% pilocarpine, double dosing (regimen D) vs single dose (regimen C)): absence of any evident toxic effects
- change from baseline DCNVA (letter score) (humans [2]; dose regimen B (fractionated 1% pilocarpine), both eyes, photopic conditions, FIG. 4, significant at 1 and 2 hours post-dosing): biggest gain from baseline at all time points
- portion of subjects who gained more than 15 letters of distance corrected near vision compared with baseline (humans [2]; dose regimen B: double (fractionated) micro-dose of 1% pilocarpine, 5 minute interval, mesopic and photopic illumination): 66.7%
- eyes that achieved 3 lines of distance corrected near vision improvement (humans [2]; dose regimen C: single non fractionated dose of 2% pilocarpine): 33.3%
- eyes that achieved 3 lines of distance corrected near vision improvement (humans [2]; dose regimen D: double dosing of 2% pilocarpine): 0%
- distance corrected near visual acuity, group B compared with group A (humans [2]; double (fractionated) dose of 1% pilocarpine (B) vs single conventional dose of 1% pilocarpine (A)): statistically significant improvement
- distance corrected near vision, regimen B compared with regimen C (same total drug amount) (humans [2]; fractionated micro-dose of 1% pilocarpine (B) vs 1 dose of 2% pilocarpine (C), mesopic and photopic): performed significantly better
